Where “and” joins values, the source holds several entries; their conditions need not be identical. Equal values may be shown once.
How the values were obtained:
L1210 [1] = assay: In vitro growth inhibition of L1210 cells; assay type: cell-based, murine
Source text: (§1) The ID50 refers to the concentration of test compound required to
(§2) inhibit the growth of either the L1210 or L1210/DDP (NSC119875) resistant

L1210/DDP = assay: In vitro growth inhibition of L1210/DDP (NSC-119875 resistant) cells; assay type: cell-based, murine
Source text: as §1, §2

P388 leukemia = assay: In vivo activity against P388 leukemia; details: Days 1,5,9,13, NSC-119875 6.7 mg/kg, NSC-271674 20.0 mg/kg
Source text: (§3) Data are expressed as survival in days and as a percentage increase in […]

P388/DDP = assay: In vivo activity against P388/DDP leukemia with acquired resistance to NSC-119875; details: Days 1,5,9,13, NSC-119875 6.7 mg/kg, NSC-271674 20.0 mg/kg
Source text: P388/DDP refers to a tumor line with acquired resistance to NSC119875.
as §3

B16 melanoma = assay: Mouse tumor panel: B16 melanoma (ip, survival time); assay type: in vivo; details: D1-9
Description: (§4) NSC-271674 Against a Panel of a Mouse Tumors
(§5) *Survival time (mean or median) assay
(§6) Data are expressed as a percentage of the survival time in days or the
(§7) tumor weights in mg of the treated mice divided by the corresponding
(§8) values for the control mice. All testing was performed using both platinu
(§9) compounds in the same experiment. The criteria for activity are as
(§10) follows: confirmed activity (activity from two separate laboratories) of
(§11) % T/C of 150 or more for survival systems and 10% or less for tumor weigh
(§12) inhibition assays. Lower levels of activity such as a % T/C of 125 for
(§13) survival systems and 42% for tumor weight inhibition assays are considere
(§14) statistically significant.

L1210 [2] = assay: Mouse tumor panel: L1210 (ip, survival time); assay type: in vivo; details: D1-9
Description: as §4, §5, §6, §7, §8, §9, §10, §11, §12, §13, §14

Lewis lung = assay: Mouse tumor panel: Lewis lung (iv, survival time); assay type: in vivo; details: D1-9
Description: as §4, §5, §6, §7, §8, §9, §10, §11, §12, §13, §14

CD8F1 mammary = assay: Mouse tumor panel: CD8F1 mammary (sc, tumor weight inhibition); assay type: in vivo; details: Q7DX5
Description: as §4
(§15) **Tumor weight inhibition assay.
as §6, §7, §8, §9, §10, §11, §12, §13, §14

Colon #38 = assay: Mouse tumor panel: Colon #38 (sc, tumor weight inhibition); assay type: in vivo; details: D2,9
Description: as §4, §15, §6, §7, §8, §9, §10, §11, §12, §13, §14

[3] = tested on: strains of murine leukemia; assay: Activity against strains of murine leukemia resistant to NSC 119875 (general statement); details: mouse, in vivo
L1210 leukemia [4] = assay: L1210 leukemia in BDF1 mice, ip treatment on Day 1 only; assay type: in vivo; details: for % increase in life span (% ILS): in 1% NaHCO3
Description: The compound in 1% NaHCO3 solution was tested against the L1210 leukemia in BDF1 mice [10^6 cells given to mice on Day 0, treatment (ip) on Day 1 only] in laboratory and the following % increases in life span (%ILS) were noted: […]

L1210 leukemia [5] = assay: L1210 leukemia in mice, treatment delayed until Day 3, singly and in combination; assay type: in vivo, BDF1 mice; details: Day 3 treatment
Description: The compound in 1% NaHCO3 solution was tested against the L1210 leukemia in BDF1 mice [10^6 cells given to mice on Day 0, treatment (ip) on Day 1 only] in laboratory and the following % increases in life span (%ILS) were noted:
When treatment was delayed until Day 3, 5 mg/kg gave 51% ILS, 42% ILS and 39% ILS in three experiments.

Lethality (LD50) in mice = details: mouse, in vivo
L1210 leukemia [6] = assay: NCI screen against L1210 leukemia, day 1, 5, 9 schedule; assay type: in vivo, murine
Source text: The compound was submitted to the Drug Development Branch of the National Cancer Institute and assigned NSC Number 271674. It was screened against the L1210 leukemia on a day 1, 5, 9 schedule and the following results were obtained: […]

L1210 leukemia [7] = assay: Second screener against L1210 leukemia, day 1, 5, 9 schedule; assay type: in vivo, murine
Source text: The compound was submitted to the Drug Development Branch of the National Cancer Institute and assigned NSC Number 271674. It was screened against the L1210 leukemia on a day 1, 5, 9 schedule and the following results were obtained:

[8] = Renal Toxicity Screening Protocol, toxicity compared to NSC-119875; assay type: in vivo; details: for Body Weight Loss score / Clinical Chemistry - Blood Urea Nitrogen score / Clinical Chemistry - Creatinine score / Clinical Chemistry - Serum Glutamic Pyruvic Transaminase score / Hematology - Hematocrit score / Hematology - White Blood Cell score / Histopathology - Gastrointestinal score / Histopathology - Hematopoietic score / Histopathology - Lymphatic score / Histopathology - Renal score: relative to NSC-119875; for TOTAL SCORE: sum of the ten scores
murine leukemia L1210 = assay: Antileukemic activity in mice against murine leukemia L1210 (general statement); assay type: in vivo
Source text: Some previous platinum chelate compounds show dosage limitation due to renal impairment but the free carboxyl of the present composition offers a possible route of oral […] and absorption by the stomach.

[9] = B16 first line, optimal dose NSC-119875 2, NSC-271674 6.25 mg/kg/inj
[10] = B16 second line, optimal dose NSC-119875 1, NSC-271674 1.56 mg/kg/inj
[11] = L1210 first line, optimal dose NSC-119875 2, NSC-271674 0.78 mg/kg/inj
[12] = L1210 second line, optimal dose NSC-119875 2, NSC-271674 1.56 mg/kg/inj
[13] = Lewis lung first line, optimal dose NSC-119875 2, NSC-271674 3.12 mg/kg/inj
[14] = Lewis lung second line, optimal dose NSC-119875 2, NSC-271674 6.25 mg/kg/inj
[15] = CD8F1 first line, optimal dose NSC-119875 8, NSC-271674 6.25 mg/kg/inj
[16] = CD8F1 second line, optimal dose NSC-119875 8, NSC-271674 25 mg/kg/inj
[17] = Colon #38 first line, optimal dose NSC-119875 8, NSC-271674 12.5 mg/kg/inj
[18] = Colon #38 second line, optimal dose NSC-119875 16, NSC-271674 50 mg/kg/inj
[19] = 5 mg/kg + cyclophosphamide 50 mg/kg + 5-fluorouracil 75 mg/kg
[20] = 5 mg/kg + cyclophosphamide 50 mg/kg, two experiments

N.N.[Cl][Pt][Cl] [NSC-119875, cisdichlorodiamino platinum II, reference compound]
ID50 (concentration required to inhibit the growth of cells by 50 percent) (L1210 [1]): 0.05 µg/mL
ID50 (concentration required to inhibit the growth of cells by 50 percent) (L1210/DDP): 2.50 µg/mL
% ILS (P388 leukemia): 145%
Survival (P388 leukemia): 32.6 days
% ILS (P388/DDP): 41%
Survival (P388/DDP): 15.5 days
% T/C (survival time) at optimal dose (B16 melanoma; [9]): 193%
% T/C (survival time) at optimal dose (B16 melanoma; [10]): 166%
% T/C (survival time) at optimal dose (L1210 [2]; [11]): 151%
% T/C (survival time) at optimal dose (L1210 [2]; [12]): 182%
% T/C (survival time) at optimal dose (Lewis lung; [13]): 135%
% T/C (survival time) at optimal dose (Lewis lung; [14]): 177%
% T/C (tumor weight) at optimal dose (CD8F1 mammary; [15]): 0%
% T/C (tumor weight) at optimal dose (CD8F1 mammary; [16]): 0%
% T/C (tumor weight) at optimal dose (Colon #38; [17]): 42%
% T/C (tumor weight) at optimal dose (Colon #38; [18]): 11%
activity against NSC 119875-exhausted strains (in words) [3]: has exhausted its activity

N[C@@H]1CCCC[C@H]1N.O=C([O-])c1ccc(C(=O)[O-])c(C(=O)[O-])c1.[H+].[Pt+2] [NSC-271674, 4-Carboxyphthalato(1,2-diaminocyclohexane)platinum(II)]
% increase in life span (% ILS) (L1210 leukemia [4]; 5 mg/kg ip): 70%
% increase in life span (% ILS) (L1210 leukemia [4]; 10 mg/kg ip): 118%
% increase in life span (% ILS) (L1210 leukemia [4]; 20 mg/kg ip): 119%
% increase in life span (% ILS) (L1210 leukemia [4]; 25 mg/kg ip): 139%
% increase in life span (% ILS) (L1210 leukemia [4]; 40 mg/kg ip): 232%
mice survived > 60 days (L1210 leukemia [4]; 50 mg/kg ip): 1 of 8
% increase in life span (% ILS) (L1210 leukemia [4]; 50 mg/kg ip): 288%
mice survived > 60 days (L1210 leukemia [4]; 60 mg/kg ip): 1 of 8
% increase in life span (% ILS) (L1210 leukemia [4]; 60 mg/kg ip): 174%
% ILS (L1210 leukemia [5]; [19]): 673%
>60 day survivors (L1210 leukemia [5]; [19]): 8 of 10
% ILS (L1210 leukemia [5]; [20]): 416% and 217%
>60 day survivors (L1210 leukemia [5]; [20]): 3 of 10 and no
% ILS (L1210 leukemia [5]; 5 mg/kg alone, three experiments): 51% and 42% and 39%
approximate LD50 (Lethality (LD50) in mice): ~75 mg/kg
% ILS (L1210 leukemia [6]; 0.78 mg/kg): 27%
Cures (of 10) (L1210 leukemia [6]; 0.78 mg/kg): 0 of 10
% ILS (L1210 leukemia [6]; 1.56 mg/kg): 33%
Cures (of 10) (L1210 leukemia [6]; 1.56 mg/kg): 0 of 10
% ILS (L1210 leukemia [6]; 3.13 mg/kg): 46%
Cures (of 10) (L1210 leukemia [6]; 3.13 mg/kg): 0 of 10
% ILS (L1210 leukemia [6]; 6.25 mg/kg): 163%
Cures (of 10) (L1210 leukemia [6]; 6.25 mg/kg): 1 of 10
% ILS (L1210 leukemia [6]; 12.5 mg/kg): 191%
Cures (of 10) (L1210 leukemia [6]; 12.5 mg/kg): 2 of 10
% ILS (L1210 leukemia [6]; 25 mg/kg): 344%
Cures (of 10) (L1210 leukemia [6]; 25 mg/kg): 5 of 10
% ILS (L1210 leukemia [7]; 0.78 mg/kg): 19%
% ILS (L1210 leukemia [7]; 1.56 mg/kg): 19%
% ILS (L1210 leukemia [7]; 3.13 mg/kg): 41%
% ILS (L1210 leukemia [7]; 6.25 mg/kg): 58%
questionably toxic deaths (L1210 leukemia [7]; 6.25 mg/kg): 2 deaths
% ILS (L1210 leukemia [7]; 12.5 mg/kg): 147%
% ILS (L1210 leukemia [7]; 25 mg/kg): 86%
cures (L1210 leukemia [7]; all doses): No cures
ID50 (concentration required to inhibit the growth of cells by 50 percent) (L1210 [1]): 0.30 µg/mL
ID50 (concentration required to inhibit the growth of cells by 50 percent) (L1210/DDP): 0.23 µg/mL
% ILS (P388 leukemia): 56%
Survival (P388 leukemia): 20.7 days
% ILS (P388/DDP): 201%
Survival (P388/DDP): 33.3 days
% T/C (survival time) at optimal dose (B16 melanoma; [9]): 171%
% T/C (survival time) at optimal dose (B16 melanoma; [10]): 159%
% T/C (survival time) at optimal dose (L1210 [2]; [11]): 174%
% T/C (survival time) at optimal dose (L1210 [2]; [12]): 325%
% T/C (survival time) at optimal dose (Lewis lung; [13]): 122%
% T/C (survival time) at optimal dose (Lewis lung; [14]): 127%
% T/C (tumor weight) at optimal dose (CD8F1 mammary; [15]): 11%
% T/C (tumor weight) at optimal dose (CD8F1 mammary; [16]): 25%
% T/C (tumor weight) at optimal dose (Colon #38; [17]): 50%
% T/C (tumor weight) at optimal dose (Colon #38; [18]): 33%
renal toxicity (in words) ([8]; against NSC 119875): superior results in testing for renal toxicity
Body Weight Loss score [8]: 3
Clinical Chemistry - Blood Urea Nitrogen score [8]: 1
Clinical Chemistry - Creatinine score [8]: 1
Clinical Chemistry - Serum Glutamic Pyruvic Transaminase score [8]: 3
Hematology - Hematocrit score [8]: 3
Hematology - White Blood Cell score [8]: 3
Histopathology - Gastrointestinal score [8]: 1
Histopathology - Hematopoietic score [8]: 5
Histopathology - Lymphatic score [8]: 1
Histopathology - Renal score [8]: 2
TOTAL SCORE [8]: 23
effect of combination with cyclophosphamide (in words) (murine leukemia L1210; cyclophosphamide 50 mg/kg, optionally 5-FU 75 mg/kg or HU 1000 mg/kg): potentiated
antileukemic activity (in words) (murine leukemia L1210; mice): antileukemic activity
effective dosage (murine leukemia L1210; mice): 5-60 mg/kg of body weight
activity against NSC 119875-exhausted strains (in words) [3]: appears to be active

CC(C)N.CC(C)N.[Cl-].[Cl-].[OH-].[OH-].[Pt] [NSC-256927, bisisopropylamine-cis-dichloro-transdihydroxy]
Body Weight Loss score [8]: 2
Clinical Chemistry - Blood Urea Nitrogen score [8]: 1
Clinical Chemistry - Creatinine score [8]: 1
Clinical Chemistry - Serum Glutamic Pyruvic Transaminase score [8]: 3
Hematology - Hematocrit score [8]: 4
Hematology - White Blood Cell score [8]: 3
Histopathology - Gastrointestinal score [8]: 1
Histopathology - Hematopoietic score [8]: 4
Histopathology - Lymphatic score [8]: 4
Histopathology - Renal score [8]: 2
TOTAL SCORE [8]: 25

N.N.O=C([O-])C1(C(=O)[O-])CCC1.[Pt+2] [NSC-241240, diamine [1,1cyclobutanedicarboxylato (2)0,0']platinum]
Body Weight Loss score [8]: 1
Clinical Chemistry - Blood Urea Nitrogen score [8]: 1
Clinical Chemistry - Creatinine score [8]: 1
Clinical Chemistry - Serum Glutamic Pyruvic Transaminase score [8]: 3
Hematology - Hematocrit score [8]: 4
Hematology - White Blood Cell score [8]: 3
Histopathology - Gastrointestinal score [8]: 1
Histopathology - Hematopoietic score [8]: 5
Histopathology - Lymphatic score [8]: 1
Histopathology - Renal score [8]: 1
TOTAL SCORE [8]: 21
